We go through two compounds from patent US20250382631A1, “PROTAC-CID SYSTEMS FOR USE IN MULTIPLEX GENE REGULATION” (William Marsh Rice University, priority 2022, published 2025).

Test [1] relates to pUAS-2-Fluc expression in HEK293T cells with cognate or non-cognate GAL4/VPR protein pairs. The experiment in a line: Orthogonality analysis, Firefly luciferase (Fluc) luminescence. To be noted: seven different protein pairs, 2 days, FIGS. 2A and 14. The test is classed as cell-based, human. Here is the method:
Luciferase luminescence intensity measurement. Before transfection, HEK293T cells were seeded in clear bottom 96 well assay plates (Corning no. 3610) with 100 μL DMEM with 10% FBS and 1× penicillin-streptomycin at 37° C. with 5% CO2. When cells reached 50% confluency, 1.5 μL PEI Max (1 mg/mL, pH=7.1) and 100 μL DMEM were mixed with 60 ng of each plasmid (GAL4 and VPR fused target protein or E3 ubiquitin ligase, pUAS-2-Fluc) for 30 min at room temperature. Mixture was transferred into cells gently. 12 h after transfection, medium was changed, and the inductive small molecules were supplied. 2-days post induction, 120 μL of medium was aspirated from each well containing 200 μL of medium, leaving 80 μL of medium per well, then treated with 40 μL of lysis buffer (500 mM DTT (Sigma no. D0632), 10 mM coenzyme A (RPI no. C95275), 100 mM ATP (Thermo Fisher Scientific no. R1441), 80 mg/mL D-luciferin (GoldBio no. LUCNA-100), Triton lysis buffer (0.1082 M Tris-HCl, 0.0419 M Tris-Base, 75 mM NaCl, 3 mM MgCl2)). Plate was shaken with 20 seconds in “Orbital” mode with frequency of 432 rpm and Amplitude of 1 mm to lysis the cells. Recording the luminescence by plate reader Infinite M200 (TECAN) with 1000 ms integration time using Megellan v1.7 (TECAN). Mean of luciferase luminescence relative light units (RLU) was calculated by the average of three biological replications. Normalized RLU were calculated by dividing RLU of the tested group with mean of RLU of DMSO treated control group for normalization: […]

For test [2], the system named is EYFP and BFP expression in HEK293T cells. The experiment in a line: Dual PROTAC-based inducible gene cassettes (EYFP and BFP), microscopy. It is filed as cell-based, human. To be noted: MZ1 (100 nM) and dTAG-13 (100 nM) PROTAC-CID systems, FIG. 16A. How it is done:
Transfection and microscopy. HEK293T cells (American Type Culture Collection, no. CRL-3216) were cultured with high-glucose Dulbecco's modified Eagle's medium (DMEM) (Thermo Fisher Scientific no. 10569044) with 10% fetal bovine serum (FBS) (Thermo Fisher Scientific no. 10437028) and 1×penicillin-streptomycin (Thermo Fisher Scientific no. 15140122) at 37° C. with 5% CO2. Except for the data in FIGS. 3C, 3E, and 3H, cells were plated into 96 well plate (Corning no. 3598) and transfected by Polyethyleneimine Max (PEI Max) (Polysciences no. 24765-1). 1.5 μL PEI Max (1 mg/mL, pH=7.1) and 100 μl DMEM were mixed with plasmids to be slowly dropped into the cell medium after 30 mins of incubation. Medium was changed 12 hours post-transfection. The inductive small molecules, including Rapamycin (STEM CELL technologies no. 73362), dTAG-13 (TOCRIS no. 6605/5), dTAG^V-1 (TOCRIS no. 6744-5), dBRD9 (TOCRIS no. 6606/5), dTRIM24 (TOCRIS no. 6607/5), MZ1 (TOCRIS no. 6154/5), AT1 (TOCRIS no. 6356/5), TL13-12 (TOCRIS no. 6744/5), TL13-112 (TOCRIS no. 6745/5), dTAG-7 (TOCRIS no. 69125), ZXH3-26 (TOCRIS no. 6713/5) and ABA (GoldBio no. A-050-100), dissolved in Dimethyl sulfoxide (DMSO) (Sigma, no. D8418) were added. For the microscopy observation, the images were taken by Microscopy EVOS (Life Technologies) and processed by ImageJ (Schneider et al., 2012). If not otherwise noted, 60 ng of each plasmid were used for each sample.
The inventors next tested the feasibility of dual PROTAC-based inducible gene cassettes (FIG. 15). In the first cassette, GAL4 was fused with FKBP12^F36V, and VHL was ligated with VPR to drive EYFP expression in response to dTAG^V-1. In the second cassette, TetR was fused with BRD9BD, and CRBN was connected with VPR to drive blue fluorescence protein (BFP) expression in the presence of dBRD9. […] As biological computation relies on the protein or DNA to execute Boolean logic gate operation in living organisms for cell discrimination and disease diagnosis (3, 11, 42), the inventors next explored the possibility of PROTAC-CID enabled logic gate biological computation. By placing EYFP under control of the TRE (Tetracycline response element) and pUAS-1 promoter, the inventors observed strong EYFP expression by using one or two PROTACs, achieving clear logic OR gate responses (FIGS. 2C and 16B). To develop a more sophisticated logic AND gate, the inventors took advantage of two orthogonal site-specific DNA recombinases (Cre and Dre) for biological computation (43). […] In this gene circuit, only in the presence of both dTAG-13 and dBRD9 inducers, Dre and Cre can be expressed to remove their respective “STOP” signals, resulting in the eventual GFP expression as a clear logic AND readout (FIGS. 2D and 16C).

Regarding `CC[C@H](C(=O)N1CCCC[C@H]1C(=O)O[C@H](CCc1ccc(OC)c(OC)c1)c1ccccc1OCC(=O)NCCCCCCOc1cccc2c1C(=O)N(C1CCC(=O)NC1=O)C2=O)c1cc(OC)c(OC)c(OC)c1` (stereo partly shown) [dTAG-13], the “orthogonality: Fluc activation with cognate vs non-cognate protein partners” value in test [1] was “only activated Fluc expression in the cells transfected with plasmids containing GAL4-FKBP12^F36V (SEQ ID NO: 1) and CRBN-VPR (SEQ ID NO: 2) coding regions”. In addition, in test [2], the “gene activation from dual inducible cassettes” value is “single gene activation with one PROTAC small molecule and dual-gene activation using both PROTACs”.

With `Cc1ncsc1-c1ccc(CNC(=O)[C@@H]2C[C@@H](O)CN2C(=O)[C@@H](NC(=O)COCCOCCOCCNC(=O)C[C@@H]2N=C(c3ccc(Cl)cc3)c3c(sc(C)c3C)-n3c(C)nnc32)C(C)(C)C)cc1` [MZ1], in test [1], the “orthogonality: Fluc activation with cognate vs non-cognate protein partners” value is “interact with the same protein pairs”. In test [2], the “gene activation from dual inducible cassettes” value was “single gene activation with one PROTAC small molecule and dual-gene activation using both PROTACs”.
